Results published in US12329741B2, “HBV inhibitor and its use” (priority 2019, dated 2025).

Key:
[1] = system: hepatitis B virus (HBV); experiment: Anti-hepatitis B virus activity: HBV DNA in supernatant of HepG2.2.15 cells by qPCR; format: cell-based; conditions: 192 h, supernatant collected on day 8
Source text: (§1) In this experiment, real-time fluorescent quantitative PCR (qPCR) method was used to detect the content of HBV DNA in the supernatant of HepG2.2.15 cells to determine the anti-hepatitis B virus activity of the compound in HepG2.2.15 cells, and to detect cell viability impact of the test compound against HepG2.2.15 by Cell-titer Blue method. In the experiment, entecavir (ETV) was used as a reference compound to monitor the quality of the experiment.
On day 1, the cells were planted into a 96-well plate, the compound was added to treat the cells on day 2, a new culture medium containing the compound was replaced on day 5, and the supernatant was collected on day 8 to extract DNA. Quantitative PCR was used to detect the content of HBV DNA. Both the test compound and the control compound were diluted in a series of 3 times with 8 concentration points, and 2 replicate wells were measured in parallel. The final concentration of DMSO in the culture medium is 0.5%.
The calculation formula of the inhibition percentage is as follows: % inh.=(1-HBV copy number of sample/HBV copy number of 0.5% DMSO control)×100
EC50 was analyzed by Graphpad Prism software (four parameter logistic equations).

[2] = Cytotoxicity test (Cell-titer Blue method) in HepG2.2.15 cells; format: cell-based; conditions: human, six days after treatment, highest concentration tested 100 μM, read-out: HepG2.2.15 cell viability CC50
Source text: as §1
The compound concentration, plate layout, and compound treatment process are consistent with the antiviral experiments. In six days after the cells were treated with the compound, the cell viability was measured with Cell-titer Blue.
Analyze the data and calculate relative cell viability: Use the following formula to calculate the percentage of cell viability: % Cell viability=(sample fluorescence reading-fluorescence reading of culture medium control)/(fluorescence reading of DMSO control-fluorescence reading of the culture medium control)×100.
Finally, GraphPad Prism software was used to calculate the CC50 value of the compound.

[3] = Pharmacokinetics (PK) experiment, intragastric administration in rats; format: in vivo, Male SD rats; conditions: for AUC(0-inf) / Cmax / Tmax / half-life / AUC(0-t): male, SD, rat, po, intragastric administration 20 mg/kg, plasma; for AUC(0-t): read-out: AUC0-24; for absorption after oral administration / blood exposure: oral administration
Method: Male SD rats weighing 215-343 grams were fasted overnight before the test. The test compound was completely dissolved in 5% of the total volume of DMSO and then diluted with 30% Captisol to 2 mg/mL, and then it was administered by gavage at dosage of 20 mg/kg. In 15 minutes, 30 minutes, 1, 2, 4, 6, 8 and 24 hours after the administration, blood was taken from the end of the tails of rats at about 0.3 ml at each time point. The blood sample was placed in a centrifuge tube containing K2-EDTA, and centrifuged (@3500 rpm, 10 minutes, 4° C.). Take the plasma and store it in an ultra-low temperature refrigerator at −80° C. 50 μL of plasma sample was mixed with 135 μl of acetonitrile (including the internal standard IS), and then vortexed for 30 s, centrifuged at 15000 rpm at 4° C. for 10 min, and 10 μl of supernatant was taken as sample and injected into LC-MS/MS for analysis.

`Cc1sc(C(=O)C(=O)NC(C)(C)C)c(C)c1C(=O)Nc1ccc(F)c(Cl)c1` [Compound 36, 2,4-Dimethyl-3-amide-N-(3-chloro-4-fluorophenyl)-5-(2-tert-butylamino-oxalyl)-thiophene] showed an EC50 [1] of no more than 0.05 µM, a CC50 at 6 days [2] greater than 100 µM and an AUC(0-inf) [3] of 32600 ng·h/mL. It also gave a Cmax [3] of 3730 ng/mL, a Tmax [3] of 0.5 h and a half-life [3] of 734 min. For the same compound, the AUC(0-t) [3] was 25800 ng·h/mL, the “absorption after oral administration” value [3] was “well absorbed” and the blood exposure [3] was “relatively high”.

In the case of `C#CC(C)(C)NC(=O)C(=O)c1c(C)c(C(=O)Nc2ccc3occc3c2)n(C)c1C` [Compound 54, 1,3,5-Trimethyl-2-amide-N-(benzofuran-5-yl)-4-(2-(1,1-dimethylpropynamido)-oxalyl)-pyrrole], the EC50 [1] is reported as no more than 0.05 µM, the CC50 at 6 days [2] is reported as greater than 100 µM and the AUC(0-inf) [3] is reported as 87400 ng·h/mL. For the same compound, the Cmax [3] was 9430 ng/mL, the Tmax [3] was 1.67 h and the half-life [3] was 151 min. For the same compound, the AUC(0-t) [3] was 87200 ng·h/mL.

For `CC(C)(C)NC(=O)C(=O)c1cc(C(=O)Nc2ccc(F)cc2)co1` [Compound 42, 3-Amide-N-(4-fluorophenyl)-5-(2-tert-butylamino-oxalyl)-furan], the EC50 [1] was 5 to 50 µM, the CC50 at 6 days [2] was greater than 100 µM and the “absorption after oral administration” value [3] was “well absorbed”. The blood exposure [3] was “relatively high”.

With `Cc1oc(C(=O)C(=O)NCc2nccn2C)cc1C(=O)Nc1ccc(F)c(Cl)c1` [Compound 8] the EC50 [1] was 5 to 50 µM, the CC50 at 6 days [2] was greater than 100 µM and the “absorption after oral administration” value [3] was “well absorbed”. For the same compound, the blood exposure [3] was “relatively high”.

For `Cc1c(C(=O)C(=O)NC(C)(C)C)c(C)n(C)c1C(=O)Nc1ccc2occc2c1` [Compound 52, 1,3,5-Trimethyl-2-amide-N-(benzofuran-5)-4-(2-tert-butylamino-oxalyl)-pyrrole], the EC50 [1] was no more than 0.05 µM, the CC50 at 6 days [2] was greater than 100 µM and the AUC(0-inf) [3] was 17100 ng·h/mL. The Cmax [3] was 3670 ng/mL, the Tmax [3] was 1 h and the half-life [3] was 143 min. The AUC(0-t) [3] was 17100 ng·h/mL.

For `C#CCNC(=O)C(=O)c1c(C)c(C(=O)Nc2ccc3occc3c2)n(C)c1C` [Compound 53, 1,3,5-Trimethyl-2-amide-N-(benzofuran-5-yl)-4-(2-propargylamino-oxalyl)-pyrrole], the EC50 [1] was no more than 0.05 µM, the CC50 at 6 days [2] was greater than 100 µM and the AUC(0-inf) [3] was 26400 ng·h/mL. For the same compound, the Cmax [3] was 3930 ng/mL, the Tmax [3] was 1.58 h and the half-life [3] was 149 min. It also gave an AUC(0-t) [3] of 26300 ng·h/mL.

`C#CC1(NC(=O)C(=O)c2c(C)c(C(=O)Nc3ccc4occc4c3)n(C)c2C)CC1` [Compound 55, 1,3,5-Trimethyl-2-amide-N-(benzofuran-5-yl)-4-(2-(1-ethynylcyclopropane-1-amino)-oxalyl)-Pyrrole] gave an EC50 [1] of no more than 0.05 µM and a CC50 at 6 days [2] greater than 100 µM.

In the case of `C#CCNC(=O)C(=O)c1cc(C(=O)Nc2ccc(F)c(Cl)c2)c(C)o1` [Compound 2, 2-Methyl-3-amide-N-(3-chloro-4-fluorophenyl)-5-(2-propargylamino-oxalyl)-furan], the EC50 [1] is reported as 5 to 50 µM, the CC50 at 6 days [2] is reported as 61 µM and the “absorption after oral administration” value [3] is reported as “well absorbed”. The blood exposure [3] was “relatively high”.

In the case of `Cc1oc(C(=O)C(=O)NCc2cn(C3CC3)nn2)cc1C(=O)Nc1ccc(F)c(Cl)c1` [Compound 11, 2-Methyl-3-amide-N-(3-chloro-4-fluorophenyl)-5-(2-(1-cyclopropyl-1H-[1,2,3]triazole-4-ylmethylamino)-oxalyl)-furan], the “absorption after oral administration” value [3] is reported as “well absorbed” and the blood exposure [3] is reported as “relatively high”.

Compound `Cc1sc(C(=O)C(=O)NC(C)(C)C)cc1C(=O)Nc1cc(F)c(F)c(F)c1` [Compound 35, 2-Methyl-3-amide-N-(3,4,5-trifluorophenyl)-5-(2-tert-butylamino-oxalyl)-thiophene] has an EC50 [1] of 0.5 to 5 µM and a CC50 at 6 days [2] greater than 100 µM.

Compound `C#CC(C)(C)NC(=O)C(=O)c1sc(C)c(C(=O)Nc2ccc3occc3c2)c1C` [Compound 39, 2,4-Dimethyl-3-amide-N-(benzofuran-5-yl)-5-(2-(1,1-dimethylpropynamido)-oxalyl)-Thiophene] has an EC50 [1] of no more than 0.05 µM and a CC50 at 6 days [2] greater than 100 µM.

Compound `CC#CCNC(=O)C(=O)c1cc(C(=O)Nc2ccc(F)c(Cl)c2)c(C)o1` [Compound 5, 2-Methyl-3-amide-N-(3-chloro-4-fluorophenyl)-5-(2-(2-alkynylbutylamino)-oxalyl)-furan] has an EC50 [1] of 5 to 50 µM and a CC50 at 6 days [2] greater than 100 µM.

Work on `Cc1c(C(=O)C(=O)NC2(c3c[nH]nn3)CC(F)(F)C2)c(C)n(C)c1C(=O)Nc1ccc2occc2c1` [Compound 77, 1,3,5-trimethyl-2-amide-N-(benzofuran-5-yl)-4-(2-(3,3-difluoro-1-(1H-1,2,3-Triazol-4-yl)cyclobutane-1-amino)-oxalyl)-pyrrole] yielded an EC50 [1] of no more than 0.05 µM and a CC50 at 6 days [2] greater than 100 µM.

`Cc1oc(C(=O)C(=O)NC(C)(C)C)cc1C(=O)Nc1ccc(F)c(F)c1` [Compound 19, 2-Methyl-3-amide-N-(3,4-difluorophenyl)-5-(2-tert-butylamino-oxalyl)-furan] showed an EC50 [1] of 0.5 to 5 µM and a CC50 at 6 days [2] greater than 100 µM.

In the case of `CC(C)(C)NC(=O)C(=O)c1cc(C(=O)Nc2ccc(F)cc2)c(C(C)(C)C)o1` [Compound 43, 2-tert-Butyl-3-amide-N-(4-fluorophenyl)-5-(2-tert-butylamino-oxalyl)-furan], the EC50 [1] is reported as 5 to 50 µM and the CC50 at 6 days [2] is reported as greater than 100 µM.

For `Cc1c(C(=O)C(=O)NC(C)(C)c2c[nH]nn2)c(C)n(C)c1C(=O)Nc1ccc2occc2c1` [Compound 78, 1,3,5-trimethyl-2-amide-N-(benzofuran-5-yl)-4-(2-(2-(1H-1,2,3-triazole-4-yl)-2-propylamino)-oxalyl)-pyrrole], the EC50 [1] was no more than 0.05 µM and the CC50 at 6 days [2] was greater than 100 µM.

Compound `C#CCNC(=O)C(=O)c1c(C)c(C(=O)Nc2ccc3c(cnn3C)c2)n(C)c1C` [Compound 73, 1,3,5-trimethyl-2-amide-N-(1-methyl-1H-indazol-5-yl)-4-(2-propargylamino-oxalyl)-pyrrole] has an EC50 [1] of 0.5 to 5 µM and a CC50 at 6 days [2] greater than 100 µM.

With `Cc1oc(C(=O)C(=O)NCc2c[nH]nn2)cc1C(=O)Nc1ccc(F)c(Cl)c1` [Compound 17, 2-Methyl-3-amide-N-(3-chloro-4-fluorophenyl)-5-(2-(1H-1,2,3-triazole-4-methylamino)-oxalyl)-furan] the EC50 [1] was 5 to 50 µM and the CC50 at 6 days [2] was greater than 100 µM.

With `Cc1c(C(=O)C(=O)NC(C)C(F)(F)F)c(C)n(C)c1C(=O)Nc1ccc2occc2c1` (stereo in doubt) [Compound 56, 1,3,5-Trimethyl-2-amide-N-(benzofuran-5-yl)-4-(2-((S)-1,1,1-trifluoropropane-2-Amino)-oxalyl)-pyrrole] the EC50 [1] was no more than 0.05 µM and the CC50 at 6 days [2] was greater than 100 µM.

In the case of `C#CC(C)(C)NC(=O)C(=O)c1c(C)c(C(=O)Nc2ccc(F)c(F)c2)n(S(C)(=O)=O)c1C` [Compound 81, 1-Methylsulfo-2-amide-N-(3,4-difluorophenyl)-3,5-dimethyl-4-(2-(1,1-dimethylpropynamine)-oxalyl)pyrrole], the EC50 [1] is reported as 0.05 to 0.5 µM and the CC50 at 6 days [2] is reported as greater than 100 µM.

With `Cc1c(C(=O)C(=O)NC(C)(C)C)coc1C(=O)Nc1ccc(F)c(Cl)c1` [Compound 83, 2-Amide-N-(3-chloro-4-fluoro-phenyl)-3-methyl-4-(2-tert-butylamino-oxalyl)-furan] the EC50 [1] was greater than 50 µM and the CC50 at 6 days [2] was greater than 100 µM.

Work on `Cc1oc(C(=O)C(=O)NC2(C(F)(F)F)CC2)cc1C(=O)Nc1ccc(F)c(Cl)c1` [Compound 16, 2-Methyl-3-amide-N-(3-chloro-4-fluorophenyl)-5-(2-(1-trifluoromethyl-cyclopropylamino)-oxalyl)-furan] yielded an EC50 [1] of 0.05 to 0.5 µM and a CC50 at 6 days [2] greater than 100 µM.

In the case of `C#CCNC(=O)C(=O)c1c(C)c(C(=O)Nc2ccc3c(ccn3C)c2)n(C)c1C` [Compound 64, 1,3,5-Trimethyl-2-amide-N-(1-methyl-1H-indol-5-yl)-4-(2-propargylamino-oxalyl)-pyrrole], the EC50 [1] is reported as 0.5 to 5 µM and the CC50 at 6 days [2] is reported as greater than 100 µM.

`Cc1oc(C(=O)C(=O)NC(C)(C)C)c(Cl)c1C(=O)Nc1cc(F)c(F)c(F)c1` [Compound 49, 2-Methyl-3-amide-N-(3,4,5-trifluorophenyl)-4-chloro-5-(2-tert-butylamino-oxalyl)-furan] showed an EC50 [1] of 5 to 50 µM and a CC50 at 6 days [2] of 47 µM.
